According to patent publication US6617319B2, “Methods of use for 2-deoxy ecdysterone” (Council of Science and Industrial Research, priority 2000, dated 2003):
Values joined by “and” are separate entries in the source; they are usually repeats but may differ in a detail not shown here. Equal entries are not always repeated.

How the values were obtained:
guinea pig uterus = type: cell-based
From the text: A female virgin guinea pig that was in oestrous and weighing around 400-500 gm was used for the test. The animal was killed by a stunning blow on the head. The abdomen was immediately cut open. The uterus was dissected out and placed in a petri plate containing aerated De Jalon's solution (M. N Ghosh, in fundamentals of Experimental Pharmacology, 1984, second edition, Scientific book agency, Calcutta). The uterus was freed from fat and the two uterine horns were separated by cutting the lower end. Only one horn was used for the experiment. Two small loops of thread were made at each end of the uterus and kept in a tissue bath of 10 ml capacity containing aerated De Jalon's solution. The lower end was tied to the tissue holder and the upper end to the writing lever. The lever was balanced to provide a tension of 1 g with plasticene. The tissue was left in the bath for ½ hr for stabilisation before starting the experiment and the physiological solution (De Jalon's solution) was renewed every 10 minutes. This example illustrates the procedure used for the preparation of the guinea pig uterus for testing the oxytocic property of the pure white solid, 2-deoxy ecdysterone.
After stabilisation, 2-3 doses of oxytocin (Parke Davis Ltd, Hyderabad) were added as standard to the physiological solution, the dose depending on the amplitude of contraction to obtain uniform contractions. The extract was then added to the bath (50 & 250 μg/ml) and allowed to act for one minute. If a contraction was observed during that one-minute period, extract was considered to be oxytocin-like and having oxytocic property. After every contraction, the tissue was immediately washed twice with the physiological solution and relaxed for 10 minutes. The same procedure was followed for the crude extract, fractions and the purified white solid, identified as 2-deoxy ecdysterone.
The oxytocic activity of the crude, fractions and the pure compound was tested on the guinea pig uterus based on its ability to contract the relaxed uterus. The tissue was spiked with a standard oxytocic agent which induces contraction of the tissue. The efficacy of the testing agent was measured by its ability to contract the uterus by comparing the height of contraction with the standard oxytocin (Table 1). This example illustrates the procedure used for testing the crude extract and the detailed procedure followed.

[1] = radiolabelled compound injected into human volunteers; within 5 hours; cited from earlier work

Row | Molecule | % response compared to standard PGF2α (guinea pig uterus) | % response compared to standard oxytocin (guinea pig uterus) | Inducing contractions in the guinea pig uterus (guinea pig uterus) | Potency compared with standard oxytocin and PGF2α (guinea pig uterus) | Radioactivity excreted in the urine [1]
1 | 2-deoxy ecdysterone | 69.4% and 82.3% and 114.1% | 80.8% and 92.3% and 118.0% | effective | more potent than the standard oxytocin and PGF2α | 
2 | CCCCC[C@H](O)/C=C/[C@H]1[C@H](O)CC(=O)[C@@H]1C/C=C\CCCC(=O)O [PGE2] |  |  |  |  | about 50%
3 | CCCCC[C@H](O)/C=C/[C@@H]1[C@@H](C/C=C\CCCC(=O)O)[C@@H](O)C[C@H]1O [PGF2α] |  |  |  |  | around 90%
